Source: PubChem BioAssay AID256 (DTP/NCI, 2004)
Several values for one entry are separate records, joined by “and”; a condition that tells them apart may be missing. Equal values may be shown once. Inconclusive results and toxic doses are left out. Rule for the calls: active = survival T/C of 150% or more; inactive = T/C below 125% in these data.

System: CD2F1 mice, L1210 leukemia ip, survival T/C
Test: NCI In Vivo Anticancer Drug Screen. Data for tumor model L1210 Leukemia (intraperitoneal) in CD2F1 (CDF1) mice
Conditions: higher = longer survival
Summary of the method: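 Mice carrying a transplanted tumor received test compound or vehicle alone. The value is the measurement in the treated group divided by that in the vehicle-treated control group.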

[1] = endpoint: mean survival time, dose: 12.5 mg/kg/injection, schedule: Q01DX009 (ip), vehicle: saline with Tween-80
[2] = endpoint: mean survival time, dose: 25.0 mg/kg/injection, schedule: Q01DX009 (ip), vehicle: saline with Tween-80
[3] = endpoint: mean survival time, dose: 50.0 mg/kg/injection, schedule: Q01DX009 (ip), vehicle: saline with Tween-80
[4] = endpoint: mean survival time, dose: 200.0 mg/kg/injection, schedule: Q01DX009 (ip), vehicle: saline with Tween-80
[5] = endpoint: mean survival time, dose: 100.0 mg/kg/injection, schedule: Q04DX003 (ip), vehicle: saline
[6] = endpoint: mean survival time, dose: 200.0 mg/kg/injection, schedule: Q04DX003 (ip), vehicle: saline
[7] = endpoint: mean survival time, dose: 400.0 mg/kg/injection, schedule: Q04DX003 (ip), vehicle: saline
[8] = endpoint: mean survival time, dose: 100.0 mg/kg/injection, schedule: Q01DX009 (ip), vehicle: saline with Tween-80
[9] = endpoint: mean survival time, dose: 100.0 mg/kg/injection, schedule: Q04DX003 (ip), vehicle: saline with Tween-80

Measured: T/C

CC(=O)NC(Cc1ccccc1)c1ccccc1 (stereo unspecified)
inactive: endpoint: mean survival time, dose: 100.0 mg/kg/injection, schedule: Q01DX001 (ip), vehicle: saline with Tween-80 112 % of control | endpoint: mean survival time, dose: 200.0 mg/kg/injection, schedule: Q01DX001 (ip), vehicle: saline with Tween-80 105 % of control | endpoint: mean survival time, dose: 400.0 mg/kg/injection, schedule: Q01DX001 (ip), vehicle: saline with Tween-80 86 % of control

C/C=C\c1ccc(OCCOC(=O)Nc2ccc(C)c([N+](=O)[O-])c2)c(OC)c1
inactive: [1] 98 % of control | [2] 92 % of control | [3] 88 % of control and 92 % of control | [4] 88 % of control

Cc1cc2nc3c(=O)[nH]c(=O)nc-3n(CC(O)C(O)C(O)C(O)CO)c2cc1C (stereo unspecified)
inactive: endpoint: mean survival time, dose: 25.0 mg/kg/injection, schedule: Q01DX009 (ip), vehicle: saline 101 % of control | endpoint: mean survival time, dose: 25.0 mg/kg/injection, schedule: Q01DX009 (ip), vehicle: suspension in saline 96 % of control | endpoint: mean survival time, dose: 50.0 mg/kg/injection, schedule: Q01DX009 (ip), vehicle: saline 93 % of control | endpoint: mean survival time, dose: 50.0 mg/kg/injection, schedule: Q01DX009 (ip), vehicle: suspension in saline 104 % of control | endpoint: mean survival time, dose: 100.0 mg/kg/injection, schedule: Q01DX009 (ip), vehicle: saline 95 % of control | endpoint: mean survival time, dose: 100.0 mg/kg/injection, schedule: Q01DX009 (ip), vehicle: suspension in saline 102 % of control | endpoint: mean survival time, dose: 200.0 mg/kg/injection, schedule: Q01DX009 (ip), vehicle: saline 98 % of control | endpoint: mean survival time, dose: 200.0 mg/kg/injection, schedule: Q01DX009 (ip), vehicle: suspension in saline 98 % of control | endpoint: mean survival time, dose: 400.0 mg/kg/injection, schedule: Q01DX009 (ip), vehicle: saline 103 % of control | endpoint: mean survival time, dose: 400.0 mg/kg/injection, schedule: Q01DX009 (ip), vehicle: suspension in saline 98 % of control | endpoint: mean survival time, dose: 800.0 mg/kg/injection, schedule: Q01DX009 (ip), vehicle: saline 95 % of control

CCCCOC(=S)S.[Pt]
inactive: endpoint: mean survival time, dose: 18.75 mg/kg/injection, schedule: Q04DX003 (ip), vehicle: saline with Tween-80 101 % of control | endpoint: mean survival time, dose: 37.5 mg/kg/injection, schedule: Q04DX003 (ip), vehicle: saline with Tween-80 93 % of control | endpoint: mean survival time, dose: 75.0 mg/kg/injection, schedule: Q04DX003 (ip), vehicle: saline with Tween-80 101 % of control | endpoint: mean survival time, dose: 150.0 mg/kg/injection, schedule: Q04DX003 (ip), vehicle: saline with Tween-80 101 % of control | endpoint: mean survival time, dose: 300.0 mg/kg/injection, schedule: Q04DX003 (ip), vehicle: saline with Tween-80 97 % of control

O=C(Nc1ccccc1C(F)(F)F)c1cccc(Cl)c1
inactive: endpoint: mean survival time, dose: 100.0 mg/kg/injection, schedule: Q01DX009 (ip), vehicle: saline + alcohol 90 % of control | endpoint: mean survival time, dose: 100.0 mg/kg/injection, schedule: Q04DX003 (ip), vehicle: saline + alcohol 97 % of control | endpoint: mean survival time, dose: 200.0 mg/kg/injection, schedule: Q01DX009 (ip), vehicle: saline + alcohol 93 % of control | endpoint: mean survival time, dose: 200.0 mg/kg/injection, schedule: Q04DX003 (ip), vehicle: saline + alcohol 100 % of control | endpoint: mean survival time, dose: 400.0 mg/kg/injection, schedule: Q01DX009 (ip), vehicle: saline + alcohol 96 % of control | endpoint: mean survival time, dose: 400.0 mg/kg/injection, schedule: Q04DX003 (ip), vehicle: saline + alcohol 95 % of control

O=S(O)OS(=O)O
inactive: endpoint: mean survival time, dose: 37.5 mg/kg/injection, schedule: Q01DX009 (ip), vehicle: saline 89 % of control | endpoint: mean survival time, dose: 75.0 mg/kg/injection, schedule: Q01DX009 (ip), vehicle: saline 91 % of control | [5] 101 % of control | endpoint: mean survival time, dose: 150.0 mg/kg/injection, schedule: Q01DX009 (ip), vehicle: saline 93 % of control | [6] 101 % of control | endpoint: mean survival time, dose: 300.0 mg/kg/injection, schedule: Q01DX009 (ip), vehicle: saline 91 % of control | [7] 96 % of control

C=Cc1cc(OC)c2c(c1)c(=O)oc1c2cc(OC)c2c(O)ccc(C3OC(C(C)O)C(O)C3O)c21 (stereo unspecified)
inactive: endpoint: median survival time, dose: 25.0 mg/kg/injection, schedule: Q01DX009 (ip), vehicle: Klucel (hydroxypropylcellulose) (HPC) 112 % of control | endpoint: median survival time, dose: 36.0 mg/kg/injection, schedule: Q01DX009 (ip), vehicle: Klucel (hydroxypropylcellulose) (HPC) 118 % of control | endpoint: median survival time, dose: 50.0 mg/kg/injection, schedule: Q01DX009 (ip), vehicle: Klucel (hydroxypropylcellulose) (HPC) 112 % of control | endpoint: median survival time, dose: 60.0 mg/kg/injection, schedule: Q01DX009 (ip), vehicle: Klucel (hydroxypropylcellulose) (HPC) 109 % of control | endpoint: median survival time, dose: 100.0 mg/kg/injection, schedule: Q01DX009 (ip), vehicle: Klucel (hydroxypropylcellulose) (HPC) 113 % of control and 100 % of control | endpoint: median survival time, dose: 166.7 mg/kg/injection, schedule: Q01DX009 (ip), vehicle: Klucel (hydroxypropylcellulose) (HPC) 116 % of control | endpoint: median survival time, dose: 277.8 mg/kg/injection, schedule: Q01DX009 (ip), vehicle: Klucel (hydroxypropylcellulose) (HPC) 120 % of control | endpoint: median survival time, dose: 400.0 mg/kg/injection, schedule: Q01DX009 (ip), vehicle: Klucel (hydroxypropylcellulose) (HPC) 111 % of control

O=C(O)C1C2CCCCC21 (stereo unspecified)
inactive: [8] 105 % of control | [9] 98 % of control | [4] 94 % of control | endpoint: mean survival time, dose: 200.0 mg/kg/injection, schedule: Q04DX003 (ip), vehicle: saline with Tween-80 100 % of control | endpoint: mean survival time, dose: 400.0 mg/kg/injection, schedule: Q01DX009 (ip), vehicle: saline with Tween-80 101 % of control | endpoint: mean survival time, dose: 400.0 mg/kg/injection, schedule: Q04DX003 (ip), vehicle: saline with Tween-80 94 % of control

CN=S(=O)(OCCCCCOS(=O)(=NC)c1ccccc1)c1ccccc1 (stereo unspecified)
inactive: [1] 103 % of control | [2] 106 % of control | [3] 103 % of control | [8] 106 % of control

C[n+]1csc(=S)[nH]1
inactive: [5] 105 % of control | [6] 109 % of control | [7] 114 % of control

O=[N+]([O-])c1ccc(-c2cn3ccsc3n2)cc1
inactive: endpoint: mean survival time, dose: 100.0 mg/kg/injection, schedule: Q01DX001 (ip), vehicle: Klucel (hydroxypropylcellulose) (HPC) 87 % of control | endpoint: mean survival time, dose: 200.0 mg/kg/injection, schedule: Q01DX001 (ip), vehicle: Klucel (hydroxypropylcellulose) (HPC) 90 % of control | endpoint: mean survival time, dose: 400.0 mg/kg/injection, schedule: Q01DX001 (ip), vehicle: Klucel (hydroxypropylcellulose) (HPC) 90 % of control

C[N+]1(C)CCC(OC(=O)C(O)(c2ccccc2)C2CCCC2)C1 (stereo unspecified)
inactive: endpoint: mean survival time, dose: 3.13 mg/kg/injection, schedule: Q04DX003 (ip), vehicle: saline 87 % of control | endpoint: mean survival time, dose: 6.25 mg/kg/injection, schedule: Q04DX003 (ip), vehicle: saline 98 % of control | endpoint: mean survival time, dose: 12.5 mg/kg/injection, schedule: Q04DX003 (ip), vehicle: saline with Tween-80 100 % of control | endpoint: mean survival time, dose: 12.5 mg/kg/injection, schedule: Q04DX003 (ip), vehicle: saline 90 % of control | endpoint: mean survival time, dose: 25.0 mg/kg/injection, schedule: Q01DX001 (ip), vehicle: saline 104 % of control | endpoint: mean survival time, dose: 25.0 mg/kg/injection, schedule: Q04DX003 (ip), vehicle: saline with Tween-80 94 % of control | endpoint: mean survival time, dose: 25.0 mg/kg/injection, schedule: Q04DX003 (ip), vehicle: saline 103 % of control | endpoint: mean survival time, dose: 50.0 mg/kg/injection, schedule: Q01DX001 (ip), vehicle: saline 106 % of control | endpoint: mean survival time, dose: 50.0 mg/kg/injection, schedule: Q04DX003 (ip), vehicle: saline with Tween-80 103 % of control | endpoint: mean survival time, dose: 50.0 mg/kg/injection, schedule: Q04DX003 (ip), vehicle: saline 95 % of control | endpoint: mean survival time, dose: 100.0 mg/kg/injection, schedule: Q01DX001 (ip), vehicle: saline 102 % of control and 105 % of control | endpoint: mean survival time, dose: 100.0 mg/kg/injection, schedule: Q04DX002 (ip), vehicle: saline 97 % of control | [9] 108 % of control | [5] 113 % of control and 88 % of control | endpoint: mean survival time, dose: 200.0 mg/kg/injection, schedule: Q04DX002 (ip), vehicle: saline 112 % of control | endpoint: mean survival time, dose: 400.0 mg/kg/injection, schedule: Q04DX002 (ip), vehicle: saline 104 % of control
